# Source: US8513484B2, “Fish cancer model” (Temasek Life Sciences Laboratory Limited, priority 2005, dated 2013)
# How the values were obtained:
# [1] = system: EGFP-positive cells of embryos injected with EGFP-zK-rasB(V12) construct; assay: Drug tests on zebrafish embryos injected with EGFP-zK-rasB(V12) construct (neoplastic transformation of EGFP-positive cells); assay type: in vivo; details: for Effects: preliminary screen; for specific effect on the EGFP-positive cells: 1 μg/ml; for effect on the transformed cells: 3 μg/ml
# Protocol: 5-10 pg of plasmid DNA were injected into zebrafish embryos at the 1-2-cell stage. The actual concentration of DNA was empirically adjusted to produce 50% embryo survival rate.
# A SMZ1500 Stereoscopic Zoom Microscope (Nikon) equipped with the epi-fluorescence attachment and DXM1200F digital camera (Nikon) with original software was used for image analysis.
# [2] = system: developing embryo; assay: Toxicity of drugs for the developing embryo; assay type: in vivo, zebrafish
# Protocol: Drugs from BIOMOL® ICCB Known Bioactives Library Cat #2840 were used for drug tests. Drugs were diluted in standard fish water from the 5-mg/ml DMSO stock solutions. The injected embryos were sorted at 8 hours post fertilization (hpf) and the normally developing were selected for drug treatment. Ten to fifteen embryos per well were plated into 24-well microtiter plate and overlayed with 1.5 ml drug solution at 10 hpf. Embryos were incubated in the dark at 28° C. The results were observed every day until 5 days post fertilization (dpf).
# To evaluate feasibility of the model for drug discovery, a mini-screening was performed using selected compounds from BIOMOL® ICCB Known Bioactives Library. The embryos injected with EGFP-zK-rasB(V12) construct were treated with various drugs in 24-well microtiter plates. The drugs were administered into the standard fish water starting at 10 hpf. Concentration of drugs was proposed based on data from a preliminary screening for developmental toxicity.
# [3] = system: E-cadherin-mediated cell adhesion system; details: by restoring E-cadherin-mediated cell adhesion system; Nam et al., 2002; cited from earlier work
# [4] = 10 μg/ml in fish water from 10 hpf
# [5] = 3 μg/ml in fish water from 10 hpf
compound,measurement,setting,value
O=C1Nc2ccc(I)cc2/C1=C/c1cc(Br)c(O)c(Br)c1 [GW-5074],Effects,[1]; 1 μg/ml in fish water from 10 hpf,"Cytotoxic, non-specific effects"
"CC[C@H](C)[C@@H](CO[C@@H](Cc1ccccc1)C(=O)N[C@@H](CCS(C)(=O)=O)C(=O)OC(C)C)NC[C@@H](N)CS [L-744,832]",Effects,[1]; [4],NO
O=c1cc(N2CCOCC2)oc2c(-c3ccccc3)cccc12 [LY294002],Effects,[1]; [5],NO
CC[C@H](C)C(=O)O[C@H]1C[C@@H](C)C=C2C=C[C@H](C)[C@H](CC[C@@H]3C[C@@H](O)CC(=O)O3)[C@H]21 [Lovastatin],Effects,[1]; 0.003 μg/ml in fish water from 10 hpf,"Cytotoxic, non-specific effects"
CCCC[C@@H](C)/C=C(C)/C=C(\C)C(=O)NC1=C[C@@](O)(/C=C/C=C/C=C/C(=O)NC2=C(O)CCC2=O)[C@@H]2O[C@@H]2C1=O [Manumycin A],Effects,[1]; [5],NO
COc1cccc(-c2cc(=O)c3ccccc3o2)c1N [PD98059],growth of the EGFP-positive cells,[1]; 3 ng/ml,strongly impairs growth
same,shape and attachment of EGFP-positive cells,"[1]; 3 ng/ml, by 72 hpf","smaller, maintain flat shape and remain attached to the embryo"
same,Effects,[1]; [5],preserves the epithelial
same,concentration at which toxic effects on development become serious,"[2]; zebrafish, in vivo",10 ng/mL
Cc1ccc(-c2nn(C(C)(C)C)c3ncnc(N)c23)cc1 [PP1],specific effect on the EGFP-positive cells,[1],considerably reduced
same,effect on the transformed cells,[1],maintained flat shape while continued to grow
same,Effects,[1]; [5],Keeps cells flat and attached
same,toxicity for developing embryo,[2]; 1 μg/ml,tolerable
same,toxicity for developing embryo,[2]; 3 μg/ml,toxic
CC(C)(C)n1nc(-c2ccc(Cl)cc2)c2c(N)ncnc21 [PP2],specific effect on the EGFP-positive cells,[1],considerably reduced
same,effect on the transformed cells,[1],maintained flat shape while continued to grow
same,Effects,[1]; [5],Keeps cells flat and attached
same,toxicity for developing embryo,[2]; 1 μg/ml,tolerable
same,toxicity for developing embryo,[2]; 3 μg/ml,toxic
same,metastatic spread of cancer,[3],reduced metastatic spread of cancer
Cc1ccc(NC(=O)c2cccc(N(C)C)c2)cc1NC(=O)c1ccc(O)cc1 [ZM336372],Effects,[1]; [4],NO
